≈ marks a conversion by molar mass, not a printed value.
Experiments:
Format in all cases: functional
Settings in all cases: read-out: ED50 (the source's name)
A549 = test: Cytotoxicity against human A549 cells
KB = test: Cytotoxicity against human KB cells
L1210 = test: Cytotoxicity against mouse L1210 cells
P388 = test: Cytotoxicity against mouse P388 cells
HCT-8 = test: Cytotoxicity against human HCT8 cells

SMILES	EC50 (A549)	EC50 (KB)	EC50 (L1210)	EC50 (P388)	EC50 (HCT-8)
C[C@@]12O[C@H]3C[C@@H](O1)[C@]1(C=O)[C@H]4[C@H](O)C[C@]5(C)[C@@H](c6ccc(=O)oc6)CC[C@]5(O)[C@@H]4CC[C@@]1(C3)O2 [BRYOPHYLLIN A]	0.01 µg/mL (≈ 0.0212 µM)	0.014 µg/mL (≈ 0.0296 µM)	> 0.004 µg/mL	> 0.004 µg/mL	0.03 µg/mL (≈ 0.0635 µM)
CC(=O)O[C@@H]1C[C@H](O)C[C@@]2(O)CC[C@@H]3[C@@H]4[C@@H](C[C@]5(C)[C@@H](c6ccc(=O)oc6)CC[C@]35O)O[C@H](O)[C@]412 [BRYOPHYLLIN B]	–	< 0.08 µg/mL	–	–	–
CC(=O)O[C@H]1C[C@@H](O)[C@]2(C=O)[C@H]3CC[C@]4(C)[C@@H](c5ccc(=O)oc5)CC[C@]4(O)[C@@H]3CC[C@]2(O)C1	0.04 µg/mL (≈ 0.0843 µM)	< 0.04 µg/mL	> 0.004 µg/mL	> 0.004 µg/mL	0.01 µg/mL (≈ 0.0211 µM)

Source: ChEMBL document CHEMBL1147309, “Antitumor agents, 110. Bryophyllin B, a novel potent cytotoxic bufadienolide from Bryophyllum pinnatum” (1989)
